Counter-ions that a name gives are not always drawn. Marks after values point to notes of the source that are not given here.
Experiments:
[1] = tested on: Scopolamine-induced amnesic mice; experiment: Scopolamine hydrobromide-induced amnesia, transfer latency on elevated plus maze; conditions: for Transfer Latency, Day 8: learning trial; for % Decrease in Transfer Latency, Mean ± SD: Table 16
Protocol: The elevated plus maze is used to measure the memory learning activity in mice; however, transfer latency, i.e., the time elapsed between the movement of the animal from an open to an enclosed arm was markedly shortened if the animal had previously experienced entering open and closed arms.
Retention was recorded after 24 hrs (9th day) and after an interval of one week (16th day).
Drug protocol. The animals were divided into 7 groups (Group I-VII) of eight animals in each group. Group I received vehicle (0.3% CMC) only and served as vehicle control. Groups II-VII were treated with the respective test drugs, as per the details mentioned in Table 1 below, for 16 days. […] Transfer Latency was recorded after 45 minutes of the drug administration on 8th day (learning trial) and 24 hrs (9th day) and one week (16th day) after learning trial.
Retention in elevated plus maze test was used to assess the memory functions in test animals. The plus maze consists of two open opposite arms, (50×10 cm) length×width, crossed with two enclosed arms of same dimensions with walls 40 cm high. The arms are connected with a central square, (10×10 cm) to give the apparatus a plus-sign appearance. The maze was kept elevated 50 cm above the floor in a dimly lit room. On day 8, mice were individually placed on far end of one of the open arms facing away from the center and transfer latency (TL) on day 8 was recorded. TL is the time taken by the mouse to move into any one of the covered arms with all its four legs. […] On day 9, the mice were again placed on the far end of the open arm and time taken by the mice to enter the enclosed arm, transfer latency (TL) day 9, was recorded. Similarly after an interval of one week, on day 16, the transfer latency (TL) day 16 was again recorded.
The retention scores were obtained for each animal by calculating percent decrease in latency period by the formula: % decrease in TL=(L1−L0/L0)×100
where, L0=initial transfer latency period in seconds, and L1=transfer latency after 24 hrs, or one week.

[2] = target: acetylcholinesterase (AChE) (Homo sapiens, UniProt P22303); experiment: In vitro acetylcholinesterase (AChE) activity assay, method of Ellman et al. with acetylthiocholine iodide as substrate; type: biochemical; conditions: for IC50: Mean ± SD of three replicates, synthetic conjugates, read-out: Acetylcholinesterase inhihitory activity IC50 (converted)
Protocol: The acetylcholinesterase (AChE) assay was performed by the method of Ellman et al., with minor modification, using acetylthiocholine Iodide as a substrate (G. L. Ellman, et al., “A new and rapid colorimetric determination of acetylcholinesterase activity,” Biochem. Pharmacol. (1961) 7: 88-95). Ellman's reaction mixture was made from a combination of 10 mM Acetylthiocholine iodide and 0.5 mM 5,5′-dithio-bis-(2-nitrobenzoic acid) in a 0.05 M sodium phosphate buffer (pH 7.2). The rates of hydrolysis by AChE were monitored spectrophotometrically using a 96-well microtiter plate reader. Each test sample (10 μl) and 0.05 M sodium phosphate buffer (30 μl) was mixed with the enzyme solution (10 μl). An Ellman's reaction mixture (50 μl) was further added to give a final volume of 100 μl, and the mixture was incubated at 37° C. for 30 min. Absorbance at 450 nm was recorded immediately after adding the Ellman's reaction mixture. Reading was repeated for 10 min at 2 min intervals to verify that the reaction occurred linearly. Blank reaction was measured by substituting saline for the enzyme (Y. K. Chung, et al., “Inhibitory effect of ursolic acid purified from Origanum majorana L. on the acetylcholinesterase,” Mol. Cells (2001) 11: 137-143).
The acetylcholinesterase (AChE) assay was performed by the method of Ellman et. al., with minor modification, using acetylthiocholine Iodide as a substrate (G. L. Ellman, et al., “A new and rapid colorimetric determination of acetylcholinesterase activity,” Biochem. Pharmacol. (1961) 7: 88-95). Ellman's reaction mixture was made from a combination of 10 mM Acetylthiocholine iodide and 0.5 mM 5,5′-dithio-bis-(2-nitrobenzoic acid) in a 0.05 M sodium phosphate buffer (pH 7.2). The rates of hydrolysis by AChE were monitored spectrophotometrically using a 96-well microtiter plate reader. Each test sample (10 μl) and 0.05 M sodium phosphate buffer (30 μl) was mixed with the enzyme solution (10 μl). An Ellman's reaction mixture (50 μl) was further added to give a final volume of 100 μl, and the mixture was incubated at 37° C. for 30 min. Absorbance at 450 nm was recorded immediately after adding the Ellman's reaction mixture. Reading was repeated for 10 min at 2 min intervals to verify that the reaction occurred linearly. Blank reaction was measured by substituting saline for the enzyme (Y. K. Chung, et al., “Inhibitory effect of ursolic acid purified from Origanum majorana L. on the acetylcholinesterase,” Mol. Cells (2001) 11: 137-143).

[3] = tested on: mice; experiment: Open-field exploratory behavior test, anxiety paradigm; parameters: species or system Swiss Albino mice; conditions: mouse, in vivo
Protocol: Drug preparation and administration of doses.
Study design. The behavioral tests conducted with multiple seven-dose schedules. The mice were tested only once after the completion of the drug treatment schedule in the elevated plus maze and open field. The studies were carried out in a sound proof room to avoid disturbances to the animals during the behavioral studies. Exposure to a novel environment is associated with emotional disturbance and anxiety. […] Anxiety is also associated with augmented autonomic activity resulting in increased defecation and urination. All these effects are accentuated by anxiogenic drugs and attenuated by anxiolytics. Standard screening procedures such as open field method and elevated plus maze test were used to screen the anxiolytic effect of drugs in comparison with a standard drug, Diazepam.
Open-field exploratory behavior test. The open field exploratory apparatus is similar to that of Bronstein (P. M. Bronstein, “Open field behaviour of the rat as a function of age: cross sectional and longitudinal investigations,” J. Comp. Physiol. Psycol. (1972) 80: 335-341). It is made of plywood and consists of squares (61×61 cm) with high walls. […] The ratio between the number of times the animal crossed the central and the number of times the animal crossed the peripheral square is calculated.

[4] = tested on: brain tissue Malondialdehyde (MDA); type: in vivo, Swiss Albino mice; conditions: day 16; test sample p.o. (50/20/30/1/1 mg/kg) + SH 0.5 mg/kg i.p.; mean ± SEM, n=4
Source text: Estimation of lipid peroxidation.
Alzheimer's disease (AD) is an irreversible neurodegenerative disorder having symptoms including confusion, memory loss, and mood swings. The beta-amyloid peptide (BAP), with 39-42 amino acid residues, plays a significant role in the development of AD. Although there is no cure for AD, it can be managed with available drugs, but only to a small degree in a small subset of patients. […] In this study, the lipid peroxidation levels in brains of different treatment groups were measured by estimating the brain tissue Malondialdehyde (MDA) concentration. 5.

[5] = Example 7B, synthetic conjugates 1 and 5 mg/kg p.o. 16 days
[6] = Table 15, conjugate 1 mg/kg p.o. + SH 0.5 mg/kg i.p., mean ± SD, n=8
[7] = Table 15, conjugate 1 mg/kg p.o., mean ± SD, n=8
[8] = Table 15, conjugate 5 mg/kg p.o. + SH 0.5 mg/kg i.p., mean ± SD, n=8
[9] = Table 15, conjugate 5 mg/kg p.o., mean ± SD, n=8
[10] = after 24 h (day 9), conjugate 1 mg/kg p.o. + SH 0.5 mg/kg i.p., n=8
[11] = after 24 h (day 9), conjugate 5 mg/kg p.o. + SH 0.5 mg/kg i.p., n=8
[12] = Table 17, after 1 week (day 16), conjugate 1 mg/kg p.o. + SH 0.5 mg/kg i.p., n=8
[13] = Table 17, after 1 week (day 16), conjugate 5 mg/kg p.o. + SH 0.5 mg/kg i.p., n=8
[14] = Table 2, SH 0.5 mg/kg i.p. alone, mean ± SEM
[15] = Table 15, SH 0.5 mg/kg i.p. alone, mean ± SD

Chain of acetylcholinesterase (AChE) (P22303 32-614, species assumed): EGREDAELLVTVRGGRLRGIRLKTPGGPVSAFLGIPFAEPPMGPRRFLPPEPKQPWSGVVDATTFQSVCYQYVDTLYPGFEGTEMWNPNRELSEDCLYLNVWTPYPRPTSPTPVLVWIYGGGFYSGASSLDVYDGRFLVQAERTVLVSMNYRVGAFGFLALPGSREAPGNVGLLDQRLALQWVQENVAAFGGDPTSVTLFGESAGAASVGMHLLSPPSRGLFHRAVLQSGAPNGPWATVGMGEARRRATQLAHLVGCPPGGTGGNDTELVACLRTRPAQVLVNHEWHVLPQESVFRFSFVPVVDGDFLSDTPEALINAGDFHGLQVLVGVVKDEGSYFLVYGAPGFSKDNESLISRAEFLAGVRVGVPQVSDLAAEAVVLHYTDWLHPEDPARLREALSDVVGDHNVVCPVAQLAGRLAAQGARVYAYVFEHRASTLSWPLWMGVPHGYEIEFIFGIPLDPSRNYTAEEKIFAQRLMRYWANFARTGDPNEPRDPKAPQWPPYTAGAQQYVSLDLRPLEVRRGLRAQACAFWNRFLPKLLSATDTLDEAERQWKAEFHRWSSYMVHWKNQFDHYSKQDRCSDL

| SMILES | effect on Scopolamine-induced amnesia (in words) [1, 5] | Transfer Latency, Day 9 [1, 6] | Transfer Latency, Day 16 [1, 6] | Transfer Latency, Day 8 [1, 7] | Transfer Latency, Day 9 [1, 8] | Transfer Latency, Day 16 [1, 8] | Transfer Latency, Day 8 [1, 9] | % Decrease in Transfer Latency, Mean ± SD [1, 10] | % Decrease in Transfer Latency, Mean ± SD [1, 11] | % Decrease in Transfer Latency, Mean ± SEM [1, 12] | % Decrease in Transfer Latency, Mean ± SEM [1, 13] | in vitro acetylcholinesterase inhibitory activity (in words) [2] | IC50 [2] | further results |
| --- | --- | --- | --- | --- | --- | --- | --- | --- | --- | --- | --- | --- | --- | --- |
| COc1ccc2[nH]cc(CCNC3CC(=O)[C@]4(C)[C@H]5CC[C@]6(C)[C@@H]([C@H](C)[C@H]7CC(C)=C(CO)C(=O)O7)CC[C@H]6[C@@H]5C[C@H]5O[C@]54[C@H]3O)c2c1 (stereo partly shown) | significantly attenuated and reversed the Scopolamine-induced amnesia | 76.63 ± 33.95 s | 43.13 ± 12.43 s | 139.1 ± 25.05 s | 37.25 ± 4.43^bb s | 18.00 ± 4.14^bbb s | 141.00 ± 35.66 s | 45.62 ± 16.51% | 72.18 ± 6.60. % | 69.13 ± 5.38% | 85.79 ± 9.92^bb % | good dose-dependent in-vitro acetylcholinesterase inhibitory activity | 149 µM |  |
| CN1[C@@H]2C[C@@H](OC(=O)[C@H](CO)c3ccccc3)C[C@H]1[C@@H]1O[C@@H]12 [SH, Scopolamine Hydrobromide, reference compound] |  |  |  |  |  |  |  |  |  |  |  |  |  | induction of amnesia (in words) ([1]; SH 0.5 mg/kg i.p. alone vs vehicle): produced amnesia in animals; Transfer Latency, Day 8 ([1]; Table 2, SH 0.5 mg/kg i.p. alone group, mean ± SEM): 171.50 ± 16.08 s; Transfer Latency, Day 9 [1, 14]: 143.90 ± 15.30 s; Transfer Latency, Day 16 [1, 14]: 133.10 ± 15.95 s; % Decrease in Transfer Latency, Mean ± SEM ([1]; Table 3, after 24 h (day 9), SH 0.5 mg/kg i.p. alone): 14.91 ± 5.75%; % Decrease in Transfer Latency, Mean ± SEM ([1]; Table 4, after 1 week (day 16), SH 0.5 mg/kg i.p. alone): 22.11 ± 5.03%; Transfer Latency, Day 8 ([1]; Table 15, SH 0.5 mg/kg i.p. alone group, mean ± SD): 160.00 ± 66.68 s; Transfer Latency, Day 9 [1, 15]: 106.00 ± 42.81^aa s; Transfer Latency, Day 16 [1, 15]: 48.17 ± 12.73 ^aaa s; % Decrease in Transfer Latency, Mean ± SD ([1]; after 24 h (day 9), SH 0.5 mg/kg i.p. alone): 29.86 ± 17.79%; % Decrease in Transfer Latency, Mean ± SEM ([1]; Table 17, after 1 week (day 16), SH 0.5 mg/kg i.p. alone): 63.54 ± 18.87^aa % |
| CC1=C(CO)C(=O)O[C@@H]([C@@H](C)[C@H]2CC[C@H]3[C@@H]4C[C@H]5O[C@]56[C@@H](O)C(NCCc5c[nH]c7ccccc57)CC(=O)[C@]6(C)[C@H]4CC[C@]23C)C1 (stereo partly shown) [Tryptamino-withaferin-A conjugate] | significantly attenuated and reversed the Scopolamine-induced amnesia | 56.17 ± 21.99^b s | 16.50 ± 9.52^bbb s | 178.00 ± 117.90 s | 51.67 ± 15.28 ^b s | 15.17 ± 10.09^bbb s | 159.00 ± 126.20 s | 54.97 ± 27.54% | 59.93 ± 13.31% | 88.10 ± 6.17^b % | 85.72 ± 11.96^bb % | good dose-dependent in-vitro acetylcholinesterase inhibitory activity | 56.1 µM |  |
| CC1=C(CO)C(=O)O[C@@H]([C@@H](C)[C@H]2CC[C@H]3[C@@H]4C[C@H]5O[C@]56[C@@H](O)C=CC(=O)[C@]6(C)[C@H]4CC[C@]23C)C1 [Withaferin-A, Withaferin A, reference compound] |  |  |  |  |  |  |  |  |  |  |  | only feeble inhibitory activity |  | anxiolytic effect in open field test (in words) [3]: did not show any anxiolytic effect; MDA Content, brain tissue [4]: 4.77 ± 0.07 nmol/mL; effect on Scopolamine-induced amnesia (in words) ([1]; Example 4A, WS extract and fractions p.o. 16 days): did not protect from or attenuate the Scopolamine-induced amnesia; Transfer Latency, Day 9 ([1]; Table 2, 24 h after SH 0.5 mg/kg i.p., test sample p.o. (50/20/30/1/1 mg/kg), mean ± SEM, n=8): 124.00 ± 13.27 s; Transfer Latency, Day 8 ([1]; Table 2, test sample p.o. daily (WS-74 50, Ace Sol 20, Ace Insol 30, IAEF-A 1, Withaferin-A 1 mg/kg), mean ± SEM, n=8): 180.40 ± 8.04 s; Transfer Latency, Day 16 ([1]; Table 2, one week after SH 0.5 mg/kg i.p., test sample p.o. 16 days (50/20/30/1/1 mg/kg), mean ± SEM, n=8): 114.90 ± 13.10 s; % Decrease in Transfer Latency, Mean ± SEM ([1]; Table 3, after 24 h (day 9), test sample p.o. (50/20/30/1/1 mg/kg) + SH 0.5 mg/kg i.p., n=8): 29.28 ± 9.43%; % Decrease in Transfer Latency, Mean ± SEM ([1]; Table 4, after 1 week (day 16), test sample p.o. (50/20/30/1/1 mg/kg) + SH 0.5 mg/kg i.p., n=8): 34.33 ± 9.30% |
